Assay results from US11384073B2, “Maleate salt of benzothiophene compound, crystalline form thereof, and use thereof” (SHANGHAI INSTITUTE OF MATERIA MEDICA, CHINESE ACADEMY OF …, priority 2018, dated 2022).
In brackets after ≈: the same amount, converted by molar mass. Read-outs that look alike come from different tables or passages of the source.

Columns and labels:
[1] = Comparison of hygroscopicity; format: physicochemical; settings: relative humidity 92.5%, 96 hours; for Moisture gain: room temperature
Experimental: The basic compound of compound Z (Example 1) and the different salts of compound Z (Examples 2, 4-6, 9) were studied for their hygroscopicity. A certain amount of the test sample was placed in a precisely weighed glass weighing bottle with a stopper, and weighed accurately. The weighing bottle was openly placed in a desiccator (a saturated potassium nitrate solution was placed in the lower part, with a relative humidity of 92.5%), and kept at room temperature for 96 hours, and then the weighing bottle was covered with the stopper and weighed accurately. The moisture gain was calculated.

Wistar rats = experiment: Acute toxicity experiments in rats; format: in vivo
Experimental: Wistar rats were randomly divided into 3 groups with 10 rats in each group. The animals were fasted for 12 hours before the administration, and the muscle relaxation state of the animals was observed 1 hour after the administration. The animal's two forepaws were gripped on a 40 cm-high hemp rope for testing for three times. The case in which the animal could put the hind paws on the rope within 15 s for two or more times was regarded as no muscle relaxation. Otherwise, it was regarded as muscle relaxation. After each animal's muscle relaxation test, a catalepsy experiment was performed, and the “grip rod” experiment method was used to determine the rat's rigidity duration. The rat's two forepaws were gently put on a small rod to test the duration time that the rats maintained their two forepaws on the rod in a 45-degree posture. […] If the rat's forepaw had not been put down, the observation was terminated at 180 s.

[2] = Comparison of solubility of the compounds; format: physicochemical
Experimental: An appropriate amount of a sample was weighted in a glass tube, the selected solvent was added thereto in a gradient and the resultant was observed until it became clear.

[3] = Comparison of appearance and compositions of the compounds; format: physicochemical
Source text: The basic compound of compound Z (Example 1) was compared with the different salts of compound Z (Examples 2, 6-12) for their appearance, compositions, crystalline forms, etc., and the results are shown in the following table: […]

[4] = Comparison of stability (Factors influencing test)
[5] = High temperature (60° C.), Day 2
[6] = Illumination (4500 lx ± 500 lx), Day 2

Row | Molecule | Moisture gain [1] | Composition [3] | Crystal water [3] | Static electricity [3] | Purity ([4]; Day 0) | Purity [4, 5] | Purity [4, 6] | Hygroscopicity (in words) [1] | also measured
1 | O=c1ccc2ccc(CCN3CCN(c4cccc5sccc45)CC3)cc2[nH]1 [Compound Z, 7-(2-(4-(benzo[b]thiophen-4-yl)piperazin-1-yl)ethyl)quinoline-2(1H)-one] | −0.16% | constant | No | No | 98.07% | 98.03% | 98.01% |  | Acute toxicity, recovery and animal deaths (comparison in words) (Wistar rats; dose of 200 mg/kg): the highest toxicity, the slowest recovery, and the most animal deaths; Solubility in deionized water (comparison in words) ([2]; Deionized water): significantly lower than those of the salts of compound Z; Solubility ([2]; buffer pH 2, aqueous buffer, thermodynamic from solid, buffer with pH = 2, read-out: Solubility): 6.8 µg/mL (≈ 17.5 µM); Solubility ([2]; buffer pH 4.5, aqueous buffer, thermodynamic from solid, buffer with pH = 4.5, read-out: Solubility): 0.7 µg/mL (≈ 1.8 µM); Stability (in words) ([4]; under high temperature and illumination conditions): high stability
2 | O=C(O)/C=C/C(=O)O.O=c1ccc2ccc(CCN3CCN(c4cccc5sccc45)CC3)cc2[nH]1 [Fumarate of compound Z, Fumarate of 7-(2-(4-(benzo[b]thiophen-4-yl)piperazin-1-yl)ethyl)quinoline-2(1H)-one] |  | constant | No | No |  |  |  |  | Solubility ([2]; Deionized water): 117.6 µg/mL; Solubility ([2]; buffer with pH = 2): 2.0 µg/mL; Solubility ([2]; buffer with pH = 4.5): 1.8 µg/mL
3 | CS(=O)(=O)O.O=c1ccc2ccc(CCN3CCN(c4cccc5sccc45)CC3)cc2[nH]1 [Methanesulfonate of compound Z, Methanesulfonate of 7-(2-(4-(benzo[b]thiophen-4-yl)piperazin-1-yl)ethyl)quinoline-2(1H)-one] | 1.74% |  |  |  | 98.60% | 98.47% | 98.54% | relatively high hygroscopicity | Animal status after single administration (rigidity/muscle relaxation) (Wistar rats; gavage 200 mg/kg, 10 per group, Day 7): 5 normal
4 | Cl.O.O=c1ccc2ccc(CCN3CCN(c4cccc5sccc45)CC3)cc2[nH]1 [Monohydrochloride of compound Z, Monohydrochloride Monohydrate of 7-(2-(4-(benzo[b]thiophen-4-yl)piperazin-1-yl)ethyl)quinoline-2(1H)-one] | 7.01% |  |  |  |  |  |  | relatively high hygroscopicity | 
5 | O=P(O)(O)O.O=c1ccc2ccc(CCN3CCN(c4cccc5sccc45)CC3)cc2[nH]1 [Phosphate of compound Z, Phosphate of 7-(2-(4-(benzo[b]thiophen-4-yl)piperazin-1-yl)ethyl)quinoline-2(1H)-one] |  | constant | No | No |  |  |  |  | Solubility ([2]; Deionized water): 181.2 µg/mL; Solubility ([2]; buffer with pH = 2): 2.8 µg/mL; Solubility ([2]; buffer with pH = 4.5): 0.1 µg/mL
6 | O=C(O)CCC(=O)O.O=c1ccc2ccc(CCN3CCN(c4cccc5sccc45)CC3)cc2[nH]1 [Succinate of compound Z, Succinate of 7-(2-(4-(benzo[b]thiophen-4-yl)piperazin-1-yl)ethyl)quinoline-2(1H)-one] | 2.02% |  |  |  | 98.95% | 99.93% | 99.92% |  | 
7 | Citrate of 7-(2-(4-(benzo[b]thiophen-4-yl)piperazin-1-yl)ethyl)quinoline-2(1H)-one [Citrate of compound Z] | 0.53% | constant | No | No |  |  |  | lower hygroscopicity | 
